Measured values taken from patent US20190225650A1, “PEPTIDOMIMETIC MACROCYCLES AND USE THEREOF IN REGULATING HIF1ALPHA” (AILERON THERAPEUTICS, INC., priority 2013, published 2019).
Bridge positions count the residues as written; N and C are the ends. Square brackets hold non-standard residues; d marks the D form. Peptide text beside a SMILES is read from it. R8 = C=CCCCCCC[C@@](C)(N)C(=O)O; S5 = C=CCCC[C@](C)(N)C(=O)O; Nle = CCCC[C@H](N)C(=O)O

How the values were obtained:
[1] = system: HRE-bla ME-180 cells; assay: Reporter gene assay (HRE-bla ME-180 HIF reporter, GeneBLAzer); format: cell-based, human; details: for EC50: 24 hour normoxia
How it was run: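 A FRET β-lactamase readout of HIF transcription was used. After compound treatment in 0.3% DMSO/media under normoxic conditions, 20 μl of 6× LiveBLAzer-FRET B/G (CCF4-AM) substrate was added. Plates sat 3 hr at room temperature in the dark and were read at 409 Ex/460Em and 409Ex/530Em on a Synergy 2. Inhibition was compared against DMSO vehicle controls, with chetomin as positive control.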

[2] = system: HRE-bla ME-180 cells; assay: Cell proliferation assay (viability, MTT, 1% FBS); format: cell-based, human
How it was run: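 ME-180 cells (2×10^4/well) in Opti-MEM with 1% FBS were pretreated 16 h under normoxia (21% O2), vehicle 0.5% DMSO final. Incubation then continued under normoxia or hypoxia (1% O2); viable cells quantified by MTT-type CellTiter 96 assay.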

[3] = target: T1, flag-tagged HIF1α (AA 786-826) / His6-tagged p300 (AA 323-423) complex (Homo sapiens, UniProt Q09472); assay: HIF1α p300 displacement assay (TR FRET, +CHAPS); format: binding; details: read-out: IC50 (nM) (HIF1α_p300 Displacement + CHAPS)
T1 construct: His6-tagged p300 (AA 323-423); made in house; host or cells: E. coli (pETDuet vector)
T1 sequence (Q09472 323-423, one chain of several): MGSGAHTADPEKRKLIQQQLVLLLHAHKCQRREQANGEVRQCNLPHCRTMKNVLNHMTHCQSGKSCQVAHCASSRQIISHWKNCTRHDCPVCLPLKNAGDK
How it was run: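 The co-expressed flag-HIF1α (786-826)/His6-p300 (323-423) complex, purified from E. coli with 0.1 mM ZnSO4, was used at 300 nM final with competitor peptides for 1 h at room temperature. Buffer was 150 mM NaCl, 20 mM HEPES pH 7.4, 7.5 mM CHAPS and 1 mM DTT. Anti-Flag-K (0.5 μM) and anti-His-D2 (4 nM) were then added for 2 h, and IC50s were fitted from the TR-FRET ratio.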

SMILES	18 h Avg % max inhibition at top conc (HIF Rptr-24 hrs normoxia) (μM) [1]	EC50 [1]	Viability 1% FBS AVG (MTT V3-24 hr Normoxia) (μM) [2]	IC50 [3]
CCCC[C@H](NC(=O)[C@H](CC(C)C)NC(=O)[C@@H](NC(=O)[C@H](CCC(=O)O)NC(=O)[C@H](CCC(=O)O)NC(=O)[C@H](CC(=O)O)NC(=O)[C@@H](NC(=O)[C@H](CC(N)=O)NC(=O)[C@@H](NC(=O)[C@H](CCC(N)=O)NC(=O)[C@]1(C)CCCC=CCCCCCC[C@@](C)(NC(=O)CNC(=O)[C@H](CCC(N)=O)NC(=O)[C@H](CC(C)C)NC(=O)[C@H](CC(C)C)NC(C)=O)C(=O)N[C@@H](CCC(=O)O)C(=O)N[C@@H](CC(C)C)C(=O)N[C@@H](CC(C)C)C(=O)N[C@@H](CCCNC(=N)N)C(=O)N[C@@H](C)C(=O)N[C@@H](CC(C)C)C(=O)N1)C(C)C)[C@@H](C)CC)C(C)C)C(=O)N[C@@]1(C)CCCC=CCCC[C@@](C)(C(=O)N[C@@H](CCCC)C(=O)NCC(N)=O)NC(=O)[C@H]([C@@H](C)CC)NC(=O)[C@H](C(C)C)NC(=O)[C@H](CC(C)C)NC1=O [SP-342] (Ac-LLQG[R8]ELLRAL[S5]QVNIDEEVL[Nle][S5]LVI[S5][Nle]G-NH2; staple 5-12, 23-27)	+++ (≤25 but <50: +++)	> 30 µM	++++ (≥30: ++++)	> 700 nM
CCCC[C@H](NC(=O)[C@H](Cc1ccccc1)NC(=O)[C@@H](NC(=O)[C@H](CCC(=O)O)NC(=O)[C@H](CCC(=O)O)NC(=O)[C@H](CC(=O)O)NC(=O)[C@@H](NC(=O)[C@H](Cc1ccccc1)NC(C)=O)[C@@H](C)CC)C(C)C)C(=O)N[C@@]1(C)CCCC=CCCC[C@@](C)(C(=O)N[C@@H](CCCC)C(=O)N[C@@H](C)C(=O)N[C@@H](CC(C)C)C(=O)N[C@@H](CC(=O)O)C(=O)N[C@@H](CCCNC(=N)N)C(=O)N[C@H](C(N)=O)[C@@H](C)CC)NC(=O)[C@H]([C@@H](C)CC)NC(=O)[C@H](C(C)C)NC(=O)[C@H](CC(C)C)NC1=O [SP-265] (Ac-FIDEEVF[Nle][S5]LVI[S5][Nle]ALDRI-NH2; staple 9-13)	++++ (≥50: ++++)	5 to 15 µM	++++ (≥30: ++++)	200 to 400 nM
CCCC[C@H](NC(=O)[C@H](CCC(=O)O)NC(=O)[C@@H](NC(=O)[C@@H](NC(=O)[C@H](CC(C)C)NC(=O)[C@]1(C)CCCC=CCCC[C@](C)(NC(=O)[C@H](CCC(=O)O)NC(=O)[C@H](CC(=O)O)NC(=O)[C@@H](NC(=O)[C@H](Cc2ccccc2)NC(C)=O)[C@@H](C)CC)C(=O)N[C@@H](C(C)C)C(=O)N[C@@H](CC(C)C)C(=O)N[C@@H](C)C(=O)N1)C(C)C)[C@@H](C)CC)C(=O)N[C@@H](C)C(=O)N[C@@H](CC(C)C)C(N)=O [SP-152] (Ac-FIDE[S5]VLA[S5]LVIE[Nle]AL-NH2; staple 5-9)	+++ (≤25 but <50: +++)	> 30 µM	++++ (≥30: ++++)	400 to 700 nM
CC[C@H](C)[C@H](NC(=O)[C@H](Cc1ccccc1)NC(C)=O)C(=O)N[C@@H](CC(=O)O)C(=O)N[C@@H](CCC(=O)O)C(=O)N[C@@]1(C)CCCC=CCCC[C@@](C)(C(=O)N[C@@H](CC(C)C)C(=O)N[C@H](C(=O)N[C@H](C(=O)N[C@@H](CCC(=O)O)C(=O)N[C@@H](CCSC)C(=O)N[C@@H](C)C(=O)N[C@@H](CC(C)C)C(N)=O)[C@@H](C)CC)C(C)C)NC(=O)[C@H](CCSC)NC(=O)[C@H](CC(C)C)NC(=O)[C@H](C(C)C)NC1=O [SP-110] (Ac-FIDE[S5]VLM[S5]LVIEMAL-NH2; staple 5-9)	+++ (≤25 but <50: +++)	> 30 µM	++++ (≥30: ++++)	400 to 700 nM
CCCC[C@H](NC(=O)[C@H](CC(C)C)NC(=O)[C@@H](NC(=O)[C@H](CCC(=O)O)NC(=O)[C@H](CCC(=O)O)NC(=O)[C@H](CC(=O)O)NC(=O)[C@@H](NC(=O)[C@H](CC(N)=O)NC(=O)[C@@H](NC(=O)[C@]1(C)CCCC=CCCCCCC[C@@](C)(NC(=O)[C@H](CCC(=O)O)NC(=O)CNC(=O)[C@H](CCC(N)=O)NC(=O)[C@H](CC(C)C)NC(=O)[C@H](CC(C)C)NC(C)=O)C(=O)N[C@@H](CC(C)C)C(=O)N[C@@H](CC(C)C)C(=O)N[C@@H](CCCNC(=N)N)C(=O)N[C@@H](C)C(=O)N[C@@H](CC(C)C)C(=O)N[C@@H](CC(=O)O)C(=O)N1)C(C)C)[C@@H](C)CC)C(C)C)C(=O)N[C@@]1(C)CCCC=CCCC[C@@](C)(C(=O)N[C@@H](CCCC)C(=O)N[C@@H](C)C(=O)N[C@@H](CC(C)C)C(N)=O)NC(=O)[C@H]([C@@H](C)CC)NC(=O)[C@H](C(C)C)NC(=O)[C@H](CC(C)C)NC1=O [SP-372] (Ac-LLQGE[R8]LLRALD[S5]VNIDEEVL[Nle][S5]LVI[S5][Nle]AL-NH2; staple 6-13, 23-27)	++++ (≥50: ++++)	> 30 µM	++++ (≥30: ++++)	400 to 700 nM
CC[C@H](C)[C@H](NC(=O)[C@H](CCCNC(=N)N)NC(=O)[C@H](CC(N)=O)NC(=O)[C@H](CC(C)C)NC(=O)[C@H](C)NC(=O)[C@H](CCSC)NC(=O)[C@]1(C)CCCC=CCCC[C@](C)(NC(=O)[C@H](CCSC)NC(=O)[C@H](CC(C)C)NC(=O)[C@@H](NC(=O)[C@H](C)NC(=O)[C@H](CCC(N)=O)NC(=O)[C@H](CC(=O)O)NC(=O)[C@@H](NC(=O)[C@H](Cc2ccccc2)NC(C)=O)[C@@H](C)CC)C(C)C)C(=O)N[C@@H](CC(C)C)C(=O)N[C@@H](C(C)C)C(=O)N[C@@H]([C@@H](C)CC)C(=O)N1)C(N)=O [SP-270] (Ac-FIDQAVLM[S5]LVI[S5]MALNRI-NH2; staple 9-13)	++ (≤10 but <25: ++)	> 30 µM	++++ (≥30: ++++)	> 700 nM
CCCC[C@H](NC(=O)[C@H](Cc1ccccc1)NC(=O)[C@@H](NC(=O)[C@H](CCC(=O)O)NC(=O)[C@H](CCC(=O)O)NC(=O)[C@H](CC(=O)O)NC(=O)[C@@H](NC(=O)[C@H](Cc1ccccc1)NC(C)=O)[C@@H](C)CC)C(C)C)C(=O)N[C@@]1(C)CCCC=CCCC[C@@](C)(C(=O)N[C@@H](C)C(=O)N[C@@H](C)C(=O)N[C@@H](CC(C)C)C(=O)N[C@@H](CC(C)C)C(N)=O)NC(=O)[C@H]([C@@H](C)CC)NC(=O)[C@H](C(C)C)NC(=O)[C@H](CC(C)C)NC1=O [SP-247] (Ac-FIDEEVF[Nle][S5]LVI[S5]AALL-NH2; staple 9-13)	+++ (≤25 but <50: +++)	15 to 30 µM	++++ (≥30: ++++)	400 to 700 nM
